Patent US20060058328A1, “Use of N-aryl diazaspiracyclic compounds in the treatment of addiction” (priority 2004, published 2006)

Assays:
[1] = tested on: NNR subtypes affecting dopamine release; test: Antagonism of dopamine release; type: biochemical; conditions: in vitro
Procedure: Dopamine release was measured using the techniques described in U.S. Pat. No. 5,597,919 to Dull et al. Release is expressed as a percentage of release obtained with a concentration of (S)-(−)-nicotine resulting in maximal effects. Reported EC50 values are expressed in nM, and Emax values represent the amount released relative to (S)-(−)-nicotine on a percentage basis.
Antagonism of dopamine release can also be evaluated using the assays described in Gradyet al., “Characterization of nicotinic receptor mediated [3H]dopamine release from synaptosomes prepared from mouse striatum,” J. Neurochem. 59: 848-856 (1992) and Soliakov and Wonnacott, “Voltage-sensitive Ca^2+ channels involved in nicotinic receptor-mediated [3H]dopamine release from rat striatal synaptosomes,” J. Neurochem. 67:163-170 (1996).
(§1) Such disorders include substance abuse, tobacco use and weight gain that accompanies drug cessation.

rats = test: Fourteen-day preclinical safety pharmacology study; type: in vivo
α4β2 subtype = α4β2 subtype (Homo sapiens, UniProt P17787+P43681); test: In vitro pharmacology: antagonism at the α4β2 subtype; type: biochemical
From the text: as §1

Chain of α4β2 subtype (P43681 29-627 limits assumed): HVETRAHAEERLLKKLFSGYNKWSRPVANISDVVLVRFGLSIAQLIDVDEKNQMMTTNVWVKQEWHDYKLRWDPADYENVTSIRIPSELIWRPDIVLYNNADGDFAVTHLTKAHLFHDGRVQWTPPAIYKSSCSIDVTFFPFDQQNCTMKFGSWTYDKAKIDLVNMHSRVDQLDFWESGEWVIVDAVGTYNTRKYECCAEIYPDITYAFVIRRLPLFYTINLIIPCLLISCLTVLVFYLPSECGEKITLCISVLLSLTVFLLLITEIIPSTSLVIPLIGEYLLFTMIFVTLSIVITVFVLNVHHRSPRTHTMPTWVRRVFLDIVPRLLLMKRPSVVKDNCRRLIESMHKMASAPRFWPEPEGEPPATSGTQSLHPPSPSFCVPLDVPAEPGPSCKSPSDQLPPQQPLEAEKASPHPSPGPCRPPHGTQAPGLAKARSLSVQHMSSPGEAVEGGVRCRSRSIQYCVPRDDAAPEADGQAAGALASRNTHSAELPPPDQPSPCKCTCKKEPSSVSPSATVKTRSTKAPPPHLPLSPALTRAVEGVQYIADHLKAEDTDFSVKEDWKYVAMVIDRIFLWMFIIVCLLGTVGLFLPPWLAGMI
Chain of α4β2 subtype (P17787 26-502): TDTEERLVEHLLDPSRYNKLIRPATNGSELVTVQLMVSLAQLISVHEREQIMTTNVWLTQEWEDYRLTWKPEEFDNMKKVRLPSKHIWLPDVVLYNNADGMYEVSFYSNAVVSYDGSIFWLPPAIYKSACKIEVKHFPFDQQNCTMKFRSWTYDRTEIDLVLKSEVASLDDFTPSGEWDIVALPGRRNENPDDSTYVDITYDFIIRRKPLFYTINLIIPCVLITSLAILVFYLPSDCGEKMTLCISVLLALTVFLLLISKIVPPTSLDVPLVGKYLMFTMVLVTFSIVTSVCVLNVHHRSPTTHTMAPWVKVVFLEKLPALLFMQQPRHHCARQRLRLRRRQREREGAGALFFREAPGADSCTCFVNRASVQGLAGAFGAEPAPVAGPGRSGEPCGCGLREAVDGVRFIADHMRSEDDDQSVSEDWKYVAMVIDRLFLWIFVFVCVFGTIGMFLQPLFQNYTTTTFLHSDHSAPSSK

Cl.Cl.c1cncc(N2CCC3(CCCN3)C2)c1 (stereo not drawn) [Sample 1, 7-(3-pyridyl)-1,7-diazaspiro[4.4]nonane dihydrochloride]
Imax, antagonist at NNR subtypes affecting dopamine release [1]: 67% | IC50 ([1]; read-out: IC50, antagonist at NNR subtypes affecting dopamine release): 0.901 µM | stimulant sensitization properties (rats): without demonstrating stimulant sensitization properties | weight gain in rats (rats): reduced weight gain | Imax, antagonist at the α4β2 subtype (α4β2 subtype): 50% | IC50 (α4β2 subtype; read-out: IC50, antagonist at the α4β2 subtype): 193 µM
